# Source: US10399972B2, “Tricyclic compounds as inhibitors of mutant IDH enzymes” (Merck Sharp & Dohme Corp., priority 2015, dated 2019)
# Target: R132H mutant IDH1 enzyme (Homo sapiens (Human), UniProt O75874, R132H)
# Experiment: R132H IDH1 Enzymatic Assay
# Assay type: biochemical
# Conditions: 1.5 nM final, 30 min preincubation, 60 min reaction, Kinase-GLO luminescence
# Description: R132H IDH1 Enzymatic Assay
# Each test compound (10 mM stock in DMSO) is diluted in DMSO to make a 10-point, 3-fold dilution series. 125 nL of each dilution or DMSO alone is dispensed to a 384-well Greiner Lumitrac 200 assay plate using an Echo® Liquid Handler. To each well of the plate is added 20 uL of enzyme in assay buffer or assay buffer alone. Assay buffer consists of 50 mM sodium phosphate, pH 7.0, 50 mM magnesium chloride, 50 mM sodium chloride, and 0.01% (w/v) bovine serum albumin. When present, the R132H mutant IDH1 enzyme is at a working concentration of 1.875 nM (final concentration in assay of 1.5 nM). The assay plate is allowed to incubate for 30 minutes at room temperature and 5 uL of 5× substrate mixture (2.5 uM nicotinamide adenine dinucleotide phosphate, 100 uM adenosine diphosphate, 7.5 mM glyceraldehyde-3-phosphate, 7.5 ug/mL of spinach glyceraldehyde-3-phosphate dehydrogenase, 25 nM phosphoglycerate kinase, and 5 mM alpha-ketoglutarate in assay buffer) is added to all wells. The reaction plate is incubated for 60 minutes followed by addition of 25 uL of Promega Kinase-GLO reagent to all wells and 10-minute incubation.
# Luminescence is measured using a PerkinElmer Envision plate reader. The percent activity of each dilution is determined as the ratio of background corrected signal to the background corrected signal of wells receiving only DMSO. IC50 values are determined by fitting percent activity data to a four-parameter logistic dose response equation. The IC50 values of the exemplified compounds are included in Table 8.
# Sequence of R132H mutant IDH1 enzyme (O75874 whole entry R132H): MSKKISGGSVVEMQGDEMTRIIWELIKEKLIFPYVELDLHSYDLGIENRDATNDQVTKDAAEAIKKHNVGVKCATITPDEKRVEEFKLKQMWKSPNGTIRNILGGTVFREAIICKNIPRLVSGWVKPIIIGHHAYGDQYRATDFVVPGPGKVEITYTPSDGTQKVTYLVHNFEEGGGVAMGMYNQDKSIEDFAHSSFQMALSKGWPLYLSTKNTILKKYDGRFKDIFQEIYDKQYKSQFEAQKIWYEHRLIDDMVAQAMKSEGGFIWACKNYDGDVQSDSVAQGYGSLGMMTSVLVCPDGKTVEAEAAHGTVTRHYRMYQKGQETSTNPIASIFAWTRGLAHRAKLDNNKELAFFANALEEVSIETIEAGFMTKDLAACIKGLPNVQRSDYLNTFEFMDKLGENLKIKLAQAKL
row,IC50 [nM],SMILES
1,13.6,"CC(C)O[C@H]1CC[C@H](C(=O)N2Cc3cc(F)cnc3Nc3ccc(NCC4(CCl)CCCOC4)cc32)OC1 (stereo partly drawn) [Example 42, (8-(((3-(chloromethyl)tetrahydro-2H-pyran-3-yl)methyl)amino)-3-fluoro-5,11-dihydro-6H-benzo[b]pyrido[2,3-e][1,4]diazepin-6-yl)((2R,5S)-5-isopropoxytetrahydro-2H-pyran-2-yl)methanone]"
2,160,"O=C(C1CCN(CC(F)(F)F)CC1)N1Cc2cc(F)cnc2Nc2cc(F)ccc21 [Example 72, (3,9-Difluoro-5,11-dihydro-6H-benzo[b]pyrido[2,3-e][1,4]diazepin-6-yl)(1-(2,2,2-trifluoroethyl)piperidin-4-yl)methanone]"
3,44.3,"CC(C)O[C@H]1CC[C@H](C(=O)N2Cc3cc(F)cnc3Nc3ccc(N4CC5CCC4CO5)cc32)CC1 (single isomer, unassigned) [Example 14, [3-fluoro-8-(2-oxa-5-azabicyclo[2.2.2]oct-5-yl)-5,11-dihydro-6H-pyrido[2,3-b][1,5]benzodiazepin-6-yl][trans-4-(propan-2-yloxy)cyclohexyl]methanone]"
4,36,"CC(C)O[C@H]1CC[C@H](C(=O)N2Cc3cccnc3Nc3cc(F)c(C4COCCO4)cc32)OC1 (stereo partly drawn) [Example 38, (8-(1,4-dioxan-2-yl)-9-fluoro-5,11-dihydro-6H-benzo[b]pyrido[2,3-e][1,4]diazepin-6-yl)((2R,5S)-5-isopropoxytetrahydro-2H-pyran-2-yl)methanone]"
5,71.9,"CC(C)O[C@H]1CC[C@H](C(=O)N2c3cc(N4CCOCC4)ccc3Nc3ncccc3C2C)CC1 (stereo partly drawn) [Example 66, (Trans-4-isopropoxycyclohexyl)(5-methyl-8-morpholino-5,11-dihydro-6H-benzo[b]pyrido[2,3-e][1,4]diazepin-6-yl)methanone]"
6,46.3,"CC(C)O[C@H]1CC[C@H](C(=O)N2Cc3cccnc3Nc3cc(F)c(N4C[C@@H]5C[C@H]4CO5)cc32)OC1 [Example 64, (8-((1S,4S)-2-Oxa-5-azabicyclo[2.2.1]heptan-5-yl)-9-fluoro-5H-benzo[b]pyrido[2,3-e][1,4]diazepin-6(11H)-yl)((2R,5S)-5-isopropoxytetrahydro-2H-pyran-2-yl)methanone]"
7,21.8,"CC(C)O[C@H]1CC[C@H](C(=O)N2Cc3cc(F)cnc3Nc3ccc([C@H]4COCCO4)cc32)OC1 [Example 33, (8-((S)-1,4-Dioxan-2-yl)-3-fluoro-5,11-dihydro-6H-benzo[b]pyrido[2,3-e][1,4]diazepin-6-yl)((2R,5S)-5-isopropoxytetrahydro-2H-pyran-2-yl)methanone]"
8,25.9,"Cc1cc2c(cc1N1C[C@H]3CC[C@@H]1CO3)N(C(=O)[C@H]1CC[C@H](OC(C)C)CC1)Cc1cccnc1N2 [Example 60, (trans-4-isopropoxycyclohexyl){9-methyl-8-[(1R,4R)-2-oxa-5-azabicyclo[2.2.2]oct-5-yl]-5,11-dihydro-6H-pyrido[2,3-b][1,5]benzodiazepin-6-yl}methanone]"
9,24,"CC(C)O[C@H]1CC[C@H](C(=O)N2Cc3cc(F)cnc3Nc3ccc(N4CC5(CCCOC5)C4)cc32)CC1 [Example 16, [3-fluoro-8-(6-oxa-2-azaspiro[3.5]non-2-yl)-5,11-dihydro-6H-pyrido[2,3-b][1,5]benzodiazepin-6-yl][trans-4-(propan-2-yloxy)cyclohexyl]methanone]"
10,7.8,"CC(C)O[C@H]1CC[C@H](C(=O)N2Cc3cc(F)cnc3Nc3cc(F)c(N4CC5(CCCOC5)C4)cc32)CC1 [Example 25, [3,9-difluoro-8-(6-oxa-2-azaspiro[3.5]non-2-yl)-5,11-dihydro-6H-pyrido[2,3-b][1,5]benzodiazepin-6-yl][trans-4-(propan-2-yloxy)cyclohexyl]methanone]"
11,12.2,"O=C(C1CCN(CC(F)(F)F)CC1)N1Cc2cccnc2Nc2cc(F)c([C@H]3COCCO3)cc21 [Example 57, (S)-(8-(1,4-dioxan-2-yl)-9-fluoro-5,11-dihydro-6H-benzo[b]pyrido[2,3-e][1,4]diazepin-6-yl)(1-(2,2,2-trifluoroethyl)piperidin-4-yl)methanone]"
12,22.1,"O=C(C1CCN(CC(F)(F)F)CC1)N1Cc2cc(F)cnc2Nc2ccc(N3CC4(CCCOC4)C3)cc21 [Example 12, (3-fluoro-8-(6-oxa-2-azaspiro[3.5]nonan-2-yl)-5,11-dihydro-6H-benzo[b]pyrido[2,3-e][1,4]diazepin-6-yl)(1-(2,2,2-trifluoroethyl)piperidin-4-yl)methanone]"
13,21,"CC(C)O[C@H]1CC[C@H](C(=O)N2Cc3cc(F)cnc3Nc3ccc(N4C[C@H]5COC[C@@H](C4)O5)cc32)OC1 [Example 41, (8-((1R,5S)-3,9-dioxa-7-azabicyclo[3.3.1]nonan-7-yl)-3-fluoro-5,11-dihydro-6H-benzo[b]pyrido[2,3-e][1,4]diazepin-6-yl)((2R,5S)-5-isopropoxytetrahydro-2H-pyran-2-yl)methanone]"
14,11.3,"O=C(C1CCN(CC(F)(F)F)CC1)N1Cc2cc(F)cnc2Nc2cc(F)c(Cl)cc21 [Example 5, (8-Chloro-3,9-difluoro-5,11-dihydro-6H-benzo[b]pyrido[2,3-e][1,4]diazepin-6-yl)(1-(2,2,2-trifluoroethyl)piperidin-4-yl)methanone]"
15,18.3,"CC(C)O[C@H]1CC[C@H](C(=O)N2Cc3cc(F)cnc3Nc3cc(F)c(N4CC5(CCCOC5)C4)cc32)OC1 [Example 45, (3,9-Difluoro-8-(6-oxa-2-azaspiro[3.5]nonan-2-yl)-5H-benzo[b]pyrido[2,3-e][1,4]diazepin-6(11H)-yl)((2R,5S)-5-isopropoxytetrahydro-2H-pyran-2-yl)methanone]"
16,4.2,"O=C(C1CCN(CC(F)(F)F)CC1)N1Cc2cc(F)cnc2Nc2cc(F)c(N3[C@@H]4CO[C@H]5[C@@H]4OC[C@H]53)cc21 [Example 22, (3,9-difluoro-8-((3R,3aR,6R,6aR)-hexahydro-3,6-epiminofuro[3,2-b]furan-7-yl)-5,11-dihydro-6H-benzo[b]pyrido[2,3-e][1,4]diazepin-6-yl)(1-(2,2,2-trifluoroethyl)piperidin-4-yl)methanone]"
17,28,"CC(C)O[C@H]1CC[C@H](C(=O)N2Cc3cc(F)cnc3Nc3cc(F)c([C@@H]4COCCO4)cc32)OC1 (single isomer, unassigned) [Example 35]"
18,10,"O=C(C1CCN(CC(F)(F)F)CC1)N1Cc2cc(F)cnc2Nc2cc(F)c(N3CC4CCC3CO4)cc21 (stereo not drawn) [Example 73, (8-(2-oxa-5-azabicyclo[2.2.2]octan-5-yl)-3,9-difluoro-5H-benzo[b]pyrido[2,3-e][1,4]diazepin-6(11H)-yl)(1-(2,2,2-trifluoroethyl)piperidin-4-yl)methanone]"
19,23,"C[C@H]1CN(c2cc3c(cc2F)Nc2ncc(F)cc2CN3C(=O)C2CCN(CC(F)(F)F)CC2)[C@@H](C)CO1 [Example 23, (8-((2S,5S)-2,5-dimethylmorpholino)-3,9-difluoro-5,11-dihydro-6H-benzo[b]pyrido[2,3-e][1,4]diazepin-6-yl)(1-(2,2,2-trifluoroethyl)piperidin-4-yl)methanone]"
20,174,"O=C(C1CCN(CC(F)(F)F)CC1)N1Cc2cccnc2Nc2cc(F)ccc21 [Example 74, (9-Fluoro-5,11-dihydro-6H-benzo[b]pyrido[2,3-e][1,4]diazepin-6-yl)(1-(2,2,2-trifluoroethyl)piperidin-4-yl)methanone]"
21,27.6,"O=C(C1CCN(CC(F)(F)F)CC1)N1Cc2cccnc2Nc2cc(F)c(N3[C@@H]4CO[C@H]5[C@@H]4OC[C@H]53)cc21 [Example 28, (9-fluoro-8-((3R,3aR,6R,6aR)-hexahydro-3,6-epiminofuro[3,2-b]furan-7-yl)-5,11-dihydro-6H-benzo[b]pyrido[2,3-e][1,4]diazepin-6-yl)(1-(2,2,2-trifluoroethyl)piperidin-4-yl)methanone]"
22,6.5,"O=C(C1CCN(CC(F)(F)F)CC1)N1Cc2cc(F)cnc2Nc2ccc([C@@H]3COCCO3)cc21 [Example 55, (R)-(8-(1,4-dioxan-2-yl)-3-fluoro-5,11-dihydro-6H-benzo[b]pyrido[2,3-e][1,4]diazepin-6-yl)(1-(2,2,2-trifluoroethyl)piperidin-4-yl)methanone]"

row,SMILES,IC50 [nM]
1,"CO[C@H]1C[C@H]2CC[C@@H](C1)N2c1cc2c(cc1F)Nc1ncc(F)cc1CN2C(=O)[C@H]1CC[C@H](OC(C)C)CO1 [Example 47, (3,9-difluoro-8-((1R,3S,5S)-3-methoxy-8-azabicyclo[3.2.1]octan-8-yl)-5,11-dihydro-6H-benzo[b]pyrido[2,3-e][1,4]diazepin-6-yl)((2R,5S)-5-isopropoxytetrahydro-2H-pyran-2-yl)methanone]",15.8
2,"CO[C@H]1C[C@H]2CC[C@@H](C1)N2c1cc2c(cc1F)Nc1ncc(F)cc1CN2C(=O)C1CCN(CC(F)(F)F)CC1 [Example 30, (3,9-difluoro-8-((1R,3r,5S)-3-methoxy-8-azabicyclo[3.2.1]octan-8-yl)-5,11-dihydro-6H-benzo[b]pyrido[2,3-e][1,4]diazepin-6-yl)(1-(2,2,2-trifluoroethyl)piperidin-4-yl)methanone]",14.1
